The source of these data is US20210085630A1, “PHARMACEUTICAL COMPOSITION AND USE THEREOF IN PREPARING DRUG FOR TREATING TUMOR MULTI-DRUG RESISTANCE” (SICHUAN JIUZHANG BIOLOGICAL SCIENCE AND TECHNOLOGY CO., LTD., priority 2018, published 2021).

For data set [1], the system named is drug-resistant A549 lung cancer cell lines. Kind of data set: MTT: non-cytotoxic concentration of test drugs, drug-resistant A549. To be noted: 48 h. It is filed as cell-based, human. As to the method: The culture and treatment methods of cells and drug-resistant cells were the same as above. For the experiment, there were eight groups: blank group, control group and test-drug groups. […] The plates were placed in an incubator and incubated for 48 h, then 5 mg/ml MTT (20 μl) was added to each well, and the plate was further incubated for 4 h.

For data set [2], the system named is gemcitabine-resistant Lewis lung cancer. Kind of data set: Tumor weight and inhibition rate, transplanted gemcitabine-resistant Lewis lung cancer. To be noted: gemcitabine-resistant Lewis lung cancer mice; test drug 30 mg/kg i.p. once a day 5 days, then gemcitabine 300 mg/kg every other day; positive drug gemcitabine 300 mg/kg. It counts as in vivo. As to the method:
Lewis lung cancer cell lines were induced by the increased gradient concentration of gemcitabine, and established by clone screening and cultured without drug before the experiment.
After the drug was removed from the drug-resistant cell lines, the cell concentration was adjusted to 1×10^7/ml with the culture medium. 1×10^7/ml of cells were subcutaneously injected into the right armpit of mice, 0.1 ml per mouse.
After the average diameter of tumor reached […], the mice were randomly divided into test drug group 1, test drug group 2, test drug group 3, test drug group 4, test drug group 5, test drug group 6, positive drug group, and negative group, respectively.
Test drug group: the test drug group was first intraperitoneally injected, once a day, 30 mg/kg/time, for 5 consecutive days; administration was stopped, and the positive drug was given by intraperitoneal injection on the next day; wherein the positive drug dacarbazine was administrated once every other day, 60 mg/kg/time; wherein the positive drug gemcitabine was given once every other day, 300 mg/kg/time.
Positive drug group: positive drug dacarbazine was given once every other day, 60 mg/kg/time; positive drug gemcitabine was given once every other day, 300 mg/kg/time.
Negative group: normal saline was intraperitoneally injected, once a day, for 15 consecutive days.
(§1) After completion of administration, the experiment was stopped, and the mice were killed by cervical dislocation and weighed. The tumor was stripped and weighed, to calculate the tumor inhibition rate.

Data set [3] relates to PD-1/PD-L1. Kind of data set: PD-1/PD-L1 expression rate (immunohistochemical SP method), drug-resistant Lewis lung cancer tumor tissue. It is filed as in vivo. To be noted: transplanted tumor tissues of drug-resistant Lewis lung cancer in mice, Example 3 regimen. An excerpt: (§2) The positive expression rate of PD-1/PD-L1 in tumor tissues was detected by immunohistochemical SP method.

Data set [4] deals with Opdivo-resistant B16 melanoma. Kind of data set: Antitumor effect (tumor volume, weight, inhibition rate) in Opdivo-resistant B16 melanoma mice. It is filed as in vivo. To be noted: for Tumor volume (cm^3): 30 mg/kg i.p. once a day, + Opdivo groups: test drug 5 days, then Opdivo 30 mg/kg every other day; for Tumor inhition rate (%) / Tumor weight: 30 mg/kg i.p., + Opdivo groups 30 + 30 mg/kg. As to the method: (§3) The concentration of cell lines was adjusted to 1×10^7/ml with the culture medium. 1×10^7/ml of cells were subcutaneously injected into the right armpit of mice, 0.1 ml per mouse.
(§4) The model mice were randomly divided into groups, eight for one group, and included test drug group 1, test drug group 2, test drug group 3, test drug group 4, positive drug Opdivo group, single drug chlorogenic acid group, test drug 1+Opdivo group, test drug 2+Opdivo group, test drug 3+Opdivo group, test drug 4+Opdivo group, and negative group, respectively.
(§5) Test drug group: from the second day after stopping administration to the model, the group received drug by intraperitoneal injection, once a day, 30 mg/kg.
(§6) Single drug group: from the second day after stopping administration to the model, the group received drug by intraperitoneal injection, once a day, 30 mg/kg.
(§7) Test drug+Opdivo group: from the second day after stopping administration to the model, the group received the test drug by intraperitoneal injection, once a day, and the test drug was stopped after administrating for 5 consecutive days; on the next day, Opdivo was intraperitoneally injected, once every other day, with the dosage of 30 mg/kg.
(§8) Positive drug group: once every other day, 30 mg/kg.
(§9) Negative group: normal saline was intraperitoneally injected, once a day, the same amount of saline.
(§10) Before each administration, the tumor volume was measured, and the experiment was stopped when the average tumor volume of negative group was greater than 1.5 cm^3.
as §1

For data set [5], the system named is Opdivo-resistant Lewis lung cancer. Description: Antitumor effect (tumor volume, weight, inhibition rate) in Opdivo-resistant Lewis lung cancer mice. It counts as in vivo. To be noted: for Tumor volume (cm^3): 30 mg/kg i.p. once a day, + Opdivo groups: test drug 5 days, then Opdivo 30 mg/kg every other day; for Tumor inhibition rate (%) / Tumor weight: 30 mg/kg i.p., + Opdivo groups 30 + 30 mg/kg. As to the method:
as §3, §4, §5, §6, §7, §8, §9, §10, §1

Data set [6] concerns PD-1/PD-L1. Description: PD-1/PD-L1 expression rate in tumor tissues of Opdivo-resistant B16 melanoma mice. It counts as in vivo. To be noted: tumor tissues of drug-resistant (Opdivo) B16 melanoma mice.
Text: as §2

In data set [7] the test system is CD4+T and CD8+T lymphocytes. Kind of data set: Number of CD4+T and CD8+T lymphocytes in transplanted tumor of multidrug-resistant Lewis lung cancer mice. Conditions: average of 6 high power fields. It is filed as in vivo. As to the method:
The number of CD4+T and CD8+T lymphocytes was analyzed by immunofluorescence staining, and the average number of CD4+T and CD8+T cells infiltrated in 6 high power fields was counted.

In the case of `O=C(/C=C/c1ccc(O)cc1)O[C@@H]1C[C@](O)(C(=O)O)C[C@@H](O)[C@H]1O` [Coumaroylquinic acid, coumaroylquinic acid], the “Non-cytotoxic concentration (all inhibition rates <10%)” value in data set [1] came to 1142 µg/mL. For the same molecule, in data set [2], the “Tumor inhibitory rate (%)” value came out at 5.68% and the “Tumor weight (g)” value is given as 2.16 ± 0.41 ^ g. The “Expression rate of PD-1/PD-L1, Positive PD-L1” value (“Expression rate of PD-1/PD-L1” for short) with PD-1/PD-L1 [3] is reported as 79.23%. Further, in data set [4], the “Tumor volume (cm^3)” value was found to be 1.762 ± 0.947 cm^3, the “Tumor inhition rate (%)” value is 4.24% and the “Tumor weight” value was found to be 2.71 ± 0.46 g. Besides, in data set [5], the “Tumor volume (cm^3)” value was 1.584 ± 0.424 cm^3, the “Tumor inhibition rate (%)” value is 3.88% and the “Tumor weight” value was found to be 2.48 ± 0.55 g. For the same molecule, the “Expression rate of PD-1/PD-L1” value with PD-1/PD-L1 [6] worked out at 82.87%. Also, in data set [7], the “CD4 + T cells (number)” value worked out at 79.11 ± 5.36 and the “CD8 + T cells (number)” value is given as 122.08 ± 14.36.
For `O=C(/C=C/c1ccc(O)c(O)c1)O[C@@H]1C[C@](O)(C(=O)O)C[C@@H](O)[C@H]1O` [Chlorogenic acid, chlorogenic acid], in data set [1], the “Non-cytotoxic concentration (all inhibition rates <10%)” value was found to be 1256 µg/mL. In addition, in data set [2], the “Tumor inhibitory rate (%)” value came out at 10.48% and the “Tumor weight (g)” value is recorded as 2.05 ± 0.79 ^ g. In addition, the “Expression rate of PD-1/PD-L1” value with PD-1/PD-L1 [3] came out at 81.83%. Further, in data set [4], the “continuous treatment effect / effect on tumor volume control (in words)” value is “not obvious”, the “Tumor volume (cm^3)” value was determined as 1.788 ± 0.539 cm^3, the “Tumor inhition rate (%)” value is 3.18% and the “Tumor weight” value is given as 2.74 ± 0.59 g. In data set [5], the “continuous treatment effect / effect on tumor volume control (in words)” value was “not obvious”, the “Tumor volume (cm^3)” value is recorded as 1.592 ± 0.704 cm^3, the “Tumor inhibition rate (%)” value is given as 3.18% and the “Tumor weight” value amounted to 2.46 ± 0.72 g. For the same molecule, the “Expression rate of PD-1/PD-L1” value with PD-1/PD-L1 [6] came out at 83.41%. Also, in data set [7], the “CD4 + T cells (number)” value is 79.24 ± 4.06 and the “CD8 + T cells (number)” value is reported as 126.52 ± 11.85.
